Measured values from patent publication US9730906B2, “α-derivatives of cis-monounsaturated fatty acids for use as medicines” (UNIVERSITAT DE LES ILLES BALEARS, priority 2008, dated 2017).

How the values were obtained:
A549 cells = assay: Growth/viability of A549 lung cancer cells in culture (cell count); type: cell-based, human; conditions: for IC50: concentration that reduces the number of cells to half; for tumour cell growth (number of cells, percent of untreated): 150 μM, 48 hours, A549
Experimental: FIG. 3A. Cancer cells (A549) were treated with various concentrations of OHOD and MOD11 to determine whether the effect was dependent on the concentration. […] These cells were treated with different concentrations (0-400 μM) of OHOD and MOD11 and the number of cells was determined by flow cytometry.
FIG. 3B. Cancer cells (A549) were treated with compounds indicated on the horizontal axis for 48 hours at 150 μM. Then, the cells were counted and their number and percent of untreated (control) represented on the vertical axis.
Also, a series of α-derivatives of cis-monounsaturated fatty acids were used to investigate their effectiveness in cancer treatment. Two types of experiment were performed. Firstly, the dependency of the anti-tumour effect on concentration was investigated. To perform these experiments, human lung cancer cells (A549) were cultivated in RPMI medium, supplemented with 10% foetal bovine […], 10 mM Hepes (pH 7.4), 2 mM glutamine, 2 g/l bicarbonate, 1 g/l glucose, 100 units/ml penicillin, 0.1 mg/ml streptomycin, 0.25 μg/ml Amphotericin B, at 37° C. and in the presence of 5% CO2. In a first experimental series, these cells were treated with various concentrations (0-400 μM) of OHOD and MOD11 and the number of cells was determined by flow cytometry (FIG. 3A). […] In a second series, the anti-tumour effectiveness on A549 lung cancer cells was investigated at a single concentration (150 μM) and a time of 48 hours (FIG. 3B). […] Obviously, among the previous molecules, some lacked both modifications on the α-carbon and the double bond in cis configuration (EO, HDO, ODO) and had no therapeutic effect. […]

SF767 human tumour cells = assay: Growth of SF767 tumour cells in culture; type: cell-based; conditions: concentration that reduces the number of cells to half
Experimental: In a second experimental series, designed to discover whether these molecules are effective in treatment of different types of tumours, the effect of OHOD at various concentrations on human cells of different types of cancer was studied. These experiments were performed as described before, except that the M220 and HT-29 cell lines were cultured in DMEM medium and the MDA-MB-231 line was incubated in Leibowitz L-15 medium supplemented with 15% foetal bovine […]. […] Where the nature of the tumour process requires, application can be topical (use on the skin of active products for the treatment of melanoma and other cutaneous abnormalities of cancerous nature), which can be considered as cosmetic treatments when attempts are made to correct aesthetic defects.

hypertensive rats = assay: Arterial pressure in hypertensive rats after 8-day treatment (Table 5); type: in vivo, rat; conditions: arterial pressure, hypertensive rats, 8-day treatment, 400 mg/kg oral
[1] = Levels of cholesterol, triglycerides and glucose in rats after oral treatment; type: in vivo, rat; conditions: rats, daily dose of 600 mg/kg oral; untreated controls = 100%
Experimental: FIG. 13. The four bars, from left to right respectively, show the effect of treatments with vehicle (control, first bar), OHOD at 200 mg/kg (second bar), OHOD at 400 mg/kg (third bar) and OHOD at 600 mg/kg (fourth bar) on the cholesterol levels (group of four bars to the left), triglycerides (group of four bars in the middle) and glucose (group of four bars to the right). The treatments were oral in all cases and were maintained for 30 days. The values indicated are the average obtained in 6 animals per group.
FIG. 14. Effect of treatment with vehicle (control) or with the fatty acids of the invention (600 mg/kg) on the levels of cholesterol, triglycerides and glucose. The values indicated are the average of the values obtained in 6 animals. Each group of three bars represents treatment with a different fatty acid with the left bar corresponding to cholesterol, the middle bar to triglycerides and the right bar to glucose.
Metabolic diseases form a set of pathologies characterised by the accumulation or deficit of certain molecules (cholesterol, triglycerides, glucose, etc.) in the serum or tissues. These changes are the reflection of dysfunctions that are normally associated with errors in the activity of certain enzymes or in the control of these proteins. Among the most important metabolopathies are hypercholesterolemia (elevated levels of cholesterol), hypertriglyceridemia (elevated levels of triglycerides) and diabetes (elevated levels of glucose). These pathologies have high rates of incidence, morbidity and mortality, so that treatment is a first order necessity. […] For these experiments, the dose of fatty acid indicated (0, 200, 400 and 600 mg/kg) was supplied daily via the oral route. At the end of the treatment (30 days), blood was sampled from control and treated animals (n=6) and the levels of cholesterol, triglycerides and glucose were determined using standard colorimetric methods.
(§1) In a further experiment, the effect of various molecules at a single dose (600 mg/kg) was investigated. […] In this sense, modification on the α-carbon and the double bond in cis configuration are crucial elements for producing the therapeutic effect indicated above. […] Finally, the effect of α-derivatives of cis-monounsaturated fatty acids on the prevention of obesity was investigated. For this, a model of rat obesity induced by a cafeteria diet, where the hypercaloric food increases the weight of the animals very markedly, was used. There were various experimental groups (see Table 3), each of which consisted of 6 female Wistar Kyoto rats of 250-300 g in weight. All the animals received a standard diet for 2 weeks. In addition, 2 of the groups received an oral preventative pre-treatment of vehicle and the other groups received 300 mg/kg of the fatty acids indicated below. Afterwards, one of the control groups was maintained on a standard diet (lean control) and the other was fed on a cafeteria diet (obese control). The treated animal groups were fed on the cafeteria diet. Preventative pre-treatment was maintained for all the groups. After two weeks on these diets, the lean control group had increased their body weight by an average of 16±16 g, while the obese control group had increased their body weight by an average of 43±17 g (statistically significance difference, p<0.01).

[2] = Body weight of rats on cafeteria diet, no pre-treatment (Table 5); type: in vivo, rat; conditions: cafeteria diet for 2 weeks, 300 mg/kg daily oral, no pre-treatment
From the text: (§2) The weight of treated animals was statistically less than the weight of obese control rats and statistically indistinguishable from that of lean control rats.

[3] = Rat obesity induced by cafeteria diet, preventative pre-treatment (Table 3); type: in vivo, Wistar Kyoto rats; conditions: 300 mg/kg oral, after two weeks on cafeteria diet; obese control 308 ± 17, lean control 280 ± 16; * lower than obese controls, ‡ indistinguishable
Experimental: as §1, §2

| Molecule | IC50 (A549 cells) | IC50 (SF767 human tumour cells) | PA (control 214 mmHg) (hypertensive rats) | % control CHO (cholesterol) [1] | % control TG (triglycerides) [1] | Body weight (g) (control = 311 g) [2] | tumour cell growth (number of cells, percent of untreated) (A549 cells) | Final weight [3] |
| --- | --- | --- | --- | --- | --- | --- | --- | --- |
| CCCCCCCCC=CCCCCCCC(O)C(=O)OCC (stereo not drawn) [EE-OHOD] | 79 µM | 68 µM | 161 mmHg | 62 % control | 47 % control | 295 g | – | – |
| CCCCCCCC/C=C\CCCCCCC(OC)C(=O)OCC (stereo not drawn) [EE-MOOD] | 168 µM | 195 µM | 154 mmHg | 64 % control | 66 % control | 297 g | – | – |
| CCCCCCCC/C=C\CCCCCCC(OC(C)=O)C(=O)[O-].[Na+] (stereo not drawn) [Na-ACOD] | 124 µM | 132 µM | 166 mmHg | 49 % control | 35 % control | 298 g | – | – |
| CCCCCCCC/C=C\CCCCCCC(OC)C(=O)[O-].[Na+] (stereo not drawn) [Na-MOOD] | 77 µM | 91 µM | 131 mmHg | 63 % control | 68 % control | 272 g | – | – |
| Cis-Docosenoic [DE, reference compound] | – | – | – | – | – | – | did not show anti-tumour effectiveness | 305 ± 12‡ g |
| CCCCCCCC/C=C\CCCCCCC(C(C)=O)C(=O)O (stereo not drawn) [ACOD, α-Acetyl-cis-Δ9-octadecenoic] | 153 µM | 179 µM | 157 mmHg | 59 % control | 53 % control | 301 g | – | – |
| CCCCCCCC/C=C\CCCCCCC(OP(=O)(OCC)OCC)C(=O)OCC (stereo not drawn) [EE-DEPOD] | 77 µM | 82 µM | 168 mmHg | 69 % control | 49 % control | 295 g | – | – |
| CCCCCCCC/C=C\CCCCCCC(OC)C(=O)OC (stereo not drawn) [OMe-MOOD] | 149 µM | 128 µM | 143 mmHg | 77 % control | 69 % control | 296 g | – | – |
| CCCCCCCCCCCCCCCCCCCC(=O)O [EO, Eicosanoic, reference compound] | – | – | – | – | – | – | did not show anti-tumour effectiveness | 298 ± 12‡ g |
| CCCCCCCCCCCCCCCC(=O)O [HDO, Hexadecanoic, reference compound] | – | – | – | – | – | – | did not show anti-tumour effectiveness | 299 ± 15‡ g |
| CCCCCCCC/C=C/CCCCCCC(O)C(=O)O (stereo not drawn) [tOHOD, α-Hydroxy-trans-octadecenoic, reference compound] | – | – | – | – | – | – | lacked anti-tumour effectiveness | 312 ± 19‡ g |
| CCCCCCCC/C=C\CCCCCCC(OP(=O)(OCC)OCC)C(=O)[O-].[Na+] (stereo not drawn) [Na-DEPOD] | 32 µM | 104 µM | 159 mmHg | 45 % control | 37 % control | 298 g | – | – |
| CCCCCCCCCCCCCCCCCC(=O)O [ODO, Octadecanoic, reference compound] | – | – | – | – | – | – | did not show anti-tumour effectiveness | 301 ± 18‡ g |
| CCCCCCCC/C=C\CCCCCCC(OC(C)=O)C(=O)OCC (stereo not drawn) [EE- ACOD] | 185 µM | 176 µM | 158 mmHg | 72 % control | 56 % control | 294 g | – | – |
| Trans-Hexadecenoic [HD, reference compound] | – | – | – | – | – | – | did not show anti-tumour effectiveness | 309 ± 15‡ g |
| Cis-Eicosenoic [EE, reference compound] | – | – | – | – | – | – | did not show anti-tumour effectiveness | 301 ± 17‡ g |
| CCCCCCCC/C=C\CCCCCCC(O)C(=O)OC (stereo not drawn) [OMe-OHOD] | 94 µM | 107 µM | 155 mmHg | 71 % control | 64 % control | 299 g | – | – |
| CCCCCCCCCCCCCCCCC(O)C(=O)O (stereo not drawn) [OHS, α-Hydroxy-octadecanoic, reference compound] | – | – | – | – | – | – | lacked anti-tumour effectiveness | 314 ± 11‡ g |
| CCCCCCCC/C=C/CCCCCCCC(=O)O [OD, Trans-Octadecenoic, reference compound] | – | – | – | – | – | – | did not show anti-tumour effectiveness | 311 ± 17‡ g |
